This test concerns the target wild-type human cardiac sodium channel, hNav1.5 (Homo sapiens, UniProt Q14524). Kind of test: Late INa screening assay (late sodium current, PatchXpress whole cell patch clamp). As to conditions: compound at 10 μM; read-out: Late INa % blk. Type of test: cell-based. On the technique in general: The patch-clamp technique gives a direct electrical read-out from membranes.
wild-type human cardiac sodium channel, hNav1.5, sequence (Q14524 whole entry): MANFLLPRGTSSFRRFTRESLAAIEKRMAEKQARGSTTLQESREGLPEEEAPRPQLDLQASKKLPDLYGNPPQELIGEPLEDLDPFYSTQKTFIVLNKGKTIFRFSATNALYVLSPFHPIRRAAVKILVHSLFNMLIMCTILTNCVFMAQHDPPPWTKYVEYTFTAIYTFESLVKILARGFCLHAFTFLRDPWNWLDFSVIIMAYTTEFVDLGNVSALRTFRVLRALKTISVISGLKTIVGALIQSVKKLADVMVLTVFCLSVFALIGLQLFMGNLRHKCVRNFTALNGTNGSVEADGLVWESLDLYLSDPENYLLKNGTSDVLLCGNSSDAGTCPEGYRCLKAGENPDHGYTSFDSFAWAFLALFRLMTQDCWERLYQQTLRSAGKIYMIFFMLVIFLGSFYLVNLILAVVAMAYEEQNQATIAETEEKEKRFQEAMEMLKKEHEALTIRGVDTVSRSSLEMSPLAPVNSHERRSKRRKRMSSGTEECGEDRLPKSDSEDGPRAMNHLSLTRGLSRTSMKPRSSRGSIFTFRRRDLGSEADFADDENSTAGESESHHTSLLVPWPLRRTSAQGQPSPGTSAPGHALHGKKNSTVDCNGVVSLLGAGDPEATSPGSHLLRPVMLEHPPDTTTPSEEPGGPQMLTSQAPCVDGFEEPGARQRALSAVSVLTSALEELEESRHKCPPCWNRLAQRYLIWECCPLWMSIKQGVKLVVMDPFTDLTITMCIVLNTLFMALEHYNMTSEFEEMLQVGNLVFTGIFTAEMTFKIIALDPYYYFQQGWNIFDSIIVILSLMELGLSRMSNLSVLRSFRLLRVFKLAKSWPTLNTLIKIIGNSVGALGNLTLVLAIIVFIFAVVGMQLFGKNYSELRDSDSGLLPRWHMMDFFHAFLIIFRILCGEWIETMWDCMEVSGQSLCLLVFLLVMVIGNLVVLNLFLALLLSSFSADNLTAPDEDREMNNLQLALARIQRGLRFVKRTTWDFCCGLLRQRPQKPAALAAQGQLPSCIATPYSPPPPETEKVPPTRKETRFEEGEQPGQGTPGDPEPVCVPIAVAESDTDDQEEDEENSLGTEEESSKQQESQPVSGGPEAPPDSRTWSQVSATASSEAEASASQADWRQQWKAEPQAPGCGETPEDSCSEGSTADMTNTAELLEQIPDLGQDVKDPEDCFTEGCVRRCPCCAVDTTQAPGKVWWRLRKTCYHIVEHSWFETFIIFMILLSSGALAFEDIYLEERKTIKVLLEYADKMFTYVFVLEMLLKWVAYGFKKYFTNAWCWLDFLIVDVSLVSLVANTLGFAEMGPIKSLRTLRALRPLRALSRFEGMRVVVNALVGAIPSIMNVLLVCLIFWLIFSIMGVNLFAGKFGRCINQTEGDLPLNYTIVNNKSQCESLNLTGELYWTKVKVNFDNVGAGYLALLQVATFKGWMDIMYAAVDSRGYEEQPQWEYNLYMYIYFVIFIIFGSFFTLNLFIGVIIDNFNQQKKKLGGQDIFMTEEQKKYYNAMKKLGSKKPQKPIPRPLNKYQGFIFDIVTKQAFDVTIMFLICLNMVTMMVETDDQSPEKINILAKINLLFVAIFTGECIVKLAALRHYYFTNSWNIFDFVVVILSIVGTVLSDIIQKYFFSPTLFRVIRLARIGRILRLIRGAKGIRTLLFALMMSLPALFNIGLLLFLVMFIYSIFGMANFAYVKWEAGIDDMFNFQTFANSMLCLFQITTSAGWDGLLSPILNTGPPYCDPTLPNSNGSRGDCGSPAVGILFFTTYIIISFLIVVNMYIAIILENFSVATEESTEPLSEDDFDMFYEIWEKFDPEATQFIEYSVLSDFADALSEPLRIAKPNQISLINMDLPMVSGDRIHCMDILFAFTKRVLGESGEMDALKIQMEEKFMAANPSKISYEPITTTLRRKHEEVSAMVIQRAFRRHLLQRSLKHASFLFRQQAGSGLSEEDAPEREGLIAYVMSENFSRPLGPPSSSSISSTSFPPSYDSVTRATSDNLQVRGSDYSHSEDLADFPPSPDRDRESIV
As to `CCOC(=O)C1=C(C)Nc2[nH]ncc2C1c1c(Br)sc2ccccc12` (stereo not drawn) [PT-447, ethyl 4-(2-bromobenzo[b]thiophen-3-yl)-6-methyl-4,7-dihydro-1H-pyrazolo[3,4-b]pyridine-5-carboxylate], the inhibition at 10 µM was found to be 77.4%.

Turning to `CCOC(=O)CN1C(C)=C(C(=O)OCC)C(c2cccc3ccccc23)n2nnnc21` (stereo not drawn) [PT-449, ethyl 4-(2-ethoxy-2-oxoethyl)-5-methyl-7-(naphthalen-1-yl)-4,7-dihydrotetrazolo[1,5-a]pyrimidine-6-carboxylate], the inhibition at 10 µM was 47.6%.

As for `CCOC(=O)c1c(C)nc2[nH]ncc2c1-c1ccccc1-c1cccc(C(C)=O)c1` [PT-450, ethyl 4-(3′-acetylbiphenyl-2-yl)-6-methyl-1H-pyrazolo[3,4-b]pyridine-5-carboxylate], the inhibition at 10 µM amounted to 7.3%.

On to `CCOC(=O)C1=C(C)Nc2[nH]ncc2C1c1ccccc1-c1cccc(C(C)=O)c1` (stereo not drawn) [PT-451, ethyl 4-(3′-acetylbiphenyl-2-yl)-6-methyl-4,7-dihydro-1H-pyrazolo[3,4-b]pyridine-5-carboxylate], for which the inhibition at 10 µM is 18.4%.

As for `CCOC(=O)c1ccc(N2CCN(C(=O)C3=C(C)NC4=C(C(=O)CCC4)C3c3cccc4ccccc34)CC2)cc1` (stereo not drawn) [PT-452, ethyl 4-(4-(2-methyl-4-(naphthalen-1-yl)-5-oxo-1,4,5,6,7,8-hexahydroquinoline-3-carbonyl)piperazin-1-yl)benzoate], the inhibition at 10 µM was found to be 5.9%.

`CCOC(=O)C1=C(C)Nc2[nH]ncc2C1c1ccc(N(C)C)c2ccccc12` (stereo not drawn) [PT-454, ethyl 4-(4-(dimethylamino)naphthalen-1-yl)-6-methyl-4,7-dihydro-1H-pyrazolo[3,4-b]pyridine-5-carboxylate]: the inhibition at 10 µM stood at 30.2%.

Take `CCOC(=O)C1=C(C)NC2=C(C(=O)CCC2)C1c1ccccc1-c1ccc(C(N)=O)cc1` (stereo not drawn) [PT-455, ethyl 4-(4′-carbamoylbiphenyl-2-yl)-2-methyl-5-oxo-1,4,5,6,7,8-hexahydroquinoline-3-carboxylate]: the inhibition at 10 µM was determined as 9%.

For the compound `CCOC(=O)C1=C(C)N(CC#N)c2nnnn2C1c1cccc2ccccc12` (stereo not drawn) [PT-456, ethyl 4-(cyanomethyl)-5-methyl-7-(naphthalen-1-yl)-4,7-dihydrotetrazolo[1,5-a]pyrimidine-6-carboxylate], the inhibition at 10 µM stood at 2.7%.

`CCOC(=O)C1=C(C)Nc2nnnn2C1c1ccccc1Oc1ccc(S(N)(=O)=O)cc1` (stereo not drawn) [PT-458, ethyl 5-methyl-7-(2-(4-sulfamoylphenoxy)phenyl)-4,7-dihydrotetrazolo[1,5-a]pyrimidine-6-carboxylate]: the inhibition at 10 µM was 19%.

In the case of `CCOC(=O)C1=C(C)Nc2nnnn2C1c1ccccc1-c1cccnc1` (stereo not drawn) [PT-459, ethyl 5-methyl-7-(2-(pyridin-3-yl)phenyl)-4,7-dihydrotetrazolo[1,5-a]pyrimidine-6-carboxylate], the inhibition at 10 µM was 10.3%.

For the compound `CCOC(=O)C1=C(C)Nc2nnnn2C1c1ccccc1-c1ccncc1` (stereo not drawn) [PT-460, ethyl 5-methyl-7-(2-(pyridin-4-yl)phenyl)-4,7-dihydrotetrazolo[1,5-a]pyrimidine-6-carboxylate], the inhibition at 10 µM was 22.1%.

For the compound `CCOC(=O)C1=C(C)Nc2nnnn2C1c1ccccc1-c1cncnc1` (stereo not drawn) [PT-461, ethyl 5-methyl-7-(2-(pyrimidin-5-yl)phenyl)-4,7-dihydrotetrazolo[1,5-a]pyrimidine-6-carboxylate], the inhibition at 10 µM stood at 6.2%.

As to `CCOC(=O)C1=C(C)Nc2nnnn2C1c1ccccc1-c1cccs1` (stereo not drawn) [PT-462, ethyl 5-methyl-7-(2-(thiophen-2-yl)phenyl)-4,7-dihydrotetrazolo[1,5-a]pyrimidine-6-carboxylate], the inhibition at 10 µM was 63%.

Take `CCOC(=O)C1=C(C)Nc2ccnn2C1c1cccc(Oc2ccccc2)c1` (stereo not drawn) [PT-463, ethyl 5-methyl-7-(3-phenoxyphenyl)-4,7-dihydropyrazolo[1,5-a]pyrimidine-6-carboxylate]: the inhibition at 10 µM is 42.3%.

For `CCOC(=O)C1=C(C(C)=O)C(c2cccc3ccccc23)n2nnnc2N1` (stereo not drawn) [PT-465, ethyl 6-acetyl-7-(naphthalen-1-yl)-4,7-dihydrotetrazolo[1,5-a]pyrimidine-5-carboxylate], the inhibition at 10 µM stood at 10.5%.

In the case of `CCOC(=O)C1=C(C)Nc2[nH]ncc2C1c1cccc(Oc2ccccc2)c1` (stereo not drawn) [PT-470, ethyl 6-methyl-4-(3-phenoxyphenyl)-4,7-dihydro-1H-pyrazolo[3,4-b]pyridine-5-carboxylate], the inhibition at 10 µM worked out at 26%.

Regarding `CCOC(=O)C1=C(C)Nc2[nH]ncc2C1c1ccccc1-c1ccc(NS(C)(=O)=O)cc1` (stereo not drawn) [PT-471, ethyl 6-methyl-4-(4′-(methylsulfonamido)biphenyl-2-yl)-4,7-dihydro-1H-pyrazolo[3,4-b]pyridine-5-carboxylate], the inhibition at 10 µM stood at 30%.

For `CCOC(=O)c1c(C)nc2[nH]ncc2c1-c1cccc2ccccc12` [PT-472, ethyl 6-methyl-4-(naphthalen-1-yl)-1H-pyrazolo[3,4-b]pyridine-5-carboxylate], the inhibition at 10 µM was 22.6%.

On to `CCOC(=O)C1=C(C)Nc2[nH]ncc2C1c1cccs1` (stereo not drawn) [PT-473, ethyl 6-methyl-4-(thiophen-2-yl)-4,7-dihydro-1H-pyrazolo[3,4-b]pyridine-5-carboxylate], for which the inhibition at 10 µM was found to be 9.4%.

Regarding `CCOC(=O)c1c(C)nc2[nH]ncc2c1-c1ccccc1` [PT-474, ethyl 6-methyl-4-phenyl-1H-pyrazolo[3,4-b]pyridine-5-carboxylate], the inhibition at 10 µM was found to be 22%.

`CCOC(=O)C1=C(C)Nc2nnnn2C1c1ccccc1-n1cncn1` (stereo not drawn) [PT-475, ethyl 7-(2-(1H-1,2,4-triazol-1-yl)phenyl)-5-methyl-4,7-dihydrotetrazolo[1,5-a]pyrimidine-6-carboxylate]: the inhibition at 10 µM turned out to be 5.5%.

Take `CCOC(=O)C1=C(C)Nc2ccnn2C1c1ccccc1OCCN(C)C` (stereo not drawn) [PT-478, ethyl 7-(2-(2-(dimethylamino)ethoxy)phenyl)-5-methyl-4,7-dihydropyrazolo[1,5-a]pyrimidine-6-carboxylate]: the inhibition at 10 µM is 34.3%.

Turning to `CCOC(=O)C1=C(C)Nc2nnnn2C1c1ccccc1Oc1cccc(C(=O)OCC)c1` (stereo not drawn) [PT-479, ethyl 7-(2-(3-(ethoxycarbonyl)phenoxy)phenyl)-5-methyl-4,7-dihydrotetrazolo[1,5-a]pyrimidine-6-carboxylate], the inhibition at 10 µM was found to be 35.7%.

As for `CCOC(=O)C1=C(C)Nc2nnnn2C1c1ccccc1OCc1cccc(C(=O)OC)c1` (stereo not drawn) [PT-480, ethyl 7-(2-(3-(methoxycarbonyl)benzyloxy)phenyl)-5-methyl-4,7-dihydrotetrazolo[1,5-a]pyrimidine-6-carboxylate], the inhibition at 10 µM was 5.4%.

On to `CCOC(=O)C1=C(C)Nc2nnnn2C1c1ccccc1Oc1ccc(-c2nnn[nH]2)cc1` (stereo not drawn) [PT-481, ethyl 7-(2-(4-(1H-tetrazol-5-yl)phenoxy)phenyl)-5-methyl-4,7-dihydrotetrazolo[1,5-a]pyrimidine-6-carboxylate], for which the inhibition at 10 µM turned out to be 18%.

`CCOC(=O)C1=C(C)Nc2nnnn2C1c1ccccc1OCc1ccc(C(=O)OCC)cc1` (stereo not drawn) [PT-482, ethyl 7-(2-(4-(ethoxycarbonyl)benzyloxy)phenyl)-5-methyl-4,7-dihydrotetrazolo[1,5-a]pyrimidine-6-carboxylate]: the inhibition at 10 µM turned out to be 3.2%.

For `CCOC(=O)C1=C(C)Nc2nnnn2C1c1ccccc1Oc1ccc(C(=O)OCC)cc1` (stereo not drawn) [PT-483, ethyl 7-(2-(4-(ethoxycarbonyl)phenoxy)phenyl)-5-methyl-4,7-dihydrotetrazolo[1,5-a]pyrimidine-6-carboxylate], the inhibition at 10 µM was determined as 31.8%.

Take `CCOC(=O)C1=C(C)Nc2nnnn2C1c1ccccc1N1CCC(C(=O)OCC)CC1` (stereo not drawn) [PT-484, ethyl 7-(2-(4-(ethoxycarbonyl)piperidin-1-yl)phenyl)-5-methyl-4,7-dihydrotetrazolo[1,5-a]pyrimidine-6-carboxylate]: the inhibition at 10 µM was 36.1%.

With `CCOC(=O)C1=C(C)Nc2nnnn2C1c1ccccc1Oc1ccc(C#N)cc1` (stereo not drawn) [PT-485, ethyl 7-(2-(4-cyanophenoxy)phenyl)-5-methyl-4,7-dihydrotetrazolo[1,5-a]pyrimidine-6-carboxylate], the inhibition at 10 µM was found to be 5.2%.

On to `CCOC(=O)C1=C(C)Nc2nnnn2C1c1c(Cl)cccc1Cl` (stereo not drawn) [PT-486, ethyl 7-(2,6-dichlorophenyl)-5-methyl-4,7-dihydrotetrazolo[1,5-a]pyrimidine-6-carboxylate], for which the inhibition at 10 µM came to 30.8%.

For the compound `CCOC(=O)C1=C(C)Nc2nnnn2C1c1c(C)cccc1C` (stereo not drawn) [PT-487, ethyl 7-(2,6-dimethylphenyl)-5-methyl-4,7-dihydrotetrazolo[1,5-a]pyrimidine-6-carboxylate], the inhibition at 10 µM was determined as 20.9%.

For `CCOC(=O)C1=C(C)Nc2ccnn2C1c1c(Br)sc2ccccc12` (stereo not drawn) [PT-488, ethyl 7-(2-bromobenzo[b]thiophen-3-yl)-5-methyl-4,7-dihydropyrazolo[1,5-a]pyrimidine-6-carboxylate], the inhibition at 10 µM was found to be 82.3%.

As to `CCOC(=O)C1=C(C)N(CC(=O)Nc2c(C)cccc2C)c2nnnn2C1c1ccccc1Br` (stereo not drawn) [PT-490, ethyl 7-(2-bromophenyl)-4-(2-(2,6-dimethylphenylamino)-2-oxoethyl)-5-methyl-4,7-dihydrotetrazolo[1,5-a]pyrimidine-6-carboxylate], the inhibition at 10 µM is 7.3%.

For `CCOC(=O)C1=C(C)Nc2ccnn2C1c1ccc(OC)cc1C#N` (stereo not drawn) [PT-491, ethyl 7-(2-cyano-4-methoxyphenyl)-5-methyl-4,7-dihydropyrazolo[1,5-a]pyrimidine-6-carboxylate], the inhibition at 10 µM is -0.9%.

Consider `CCOC(=O)C1=C(C)Nc2nnnn2C1c1sccc1Br` (stereo not drawn) [PT-498, ethyl 7-(3-bromothiophen-2-yl)-5-methyl-4,7-dihydrotetrazolo[1,5-a]pyrimidine-6-carboxylate], for which the inhibition at 10 µM was 25.2%.

In the case of `CCOC(=O)C1=C(C)Nc2nnnn2C1c1ccccc1-c1cccc(C#N)c1` (stereo not drawn) [PT-499, ethyl 7-(3′-cyanobiphenyl-2-yl)-5-methyl-4,7-dihydrotetrazolo[1,5-a]pyrimidine-6-carboxylate], the inhibition at 10 µM was 27.7%.

Values taken from US20090012103A1, “SUBSTITUTED HETEROCYCLIC COMPOUNDS” (priority 2007, published 2009).
